≈ marks a conversion by molar mass, not a printed value. Where two headings read alike, the source gives them in different places.
What was measured:
Assay in all cases: MIC, broth microdilution
E. coli GC 6465 = conditions: Escherichia coli
S. aureus GC 1079 = conditions: Staphylococcus aureus
Method: (§1) Antimicrobial susceptibility testing. The in vitro activities of the antibiotics are determined by the broth microdilution method as recommended by the National Committee for Clinical Laboratory Standards (NCCLS) (1). Mueller-Hinton II broth (MHBII)(BBL Cockeysville, Md.) is the medium employed in the testing procedures. Microtiter plates containing serial dilutions of each antimicrobial agent are inoculated with each organism to yield the appropriate density (10^5 CFU/ml) in a 100 μl final volume. The plates are incubated for 18-22 hours at 35° C. in ambient air.
(§2) Representative compounds were first incubated in mouse serum for an hour prior to the in vitro testing against a panel of selected gram-positive and gram-negative bacteria strains. All compounds were also pre-incubated in water for an hour prior to testing as control. Representative compounds of Formula I were incubated in human serum prior to MIC determination.

E. coli GC 2203 = conditions: Escherichia coli
E. coli GC 4559 = conditions: Escherichia coli
E. faecium GC 4556 = conditions: Enterococcus faecium
S. aureus GC 6467 = conditions: Staphylococcus aureus
E. coli GC 3226 = conditions: Escherichia coli
E. coli GC 2234 = conditions: Escherichia coli
E. coli GC 1073 = conditions: Escherichia coli
E. coli GC 2233 = conditions: Escherichia coli
S. typhimurium GC 2172 = conditions: Salmonella enterica, TYPHIMURIUM
S. agalactiae GC 4564 = conditions: Streptococcus agalactiae
E. coli GC 4560 = conditions: Escherichia coli
S. aureus GC 6466 = conditions: Staphylococcus aureus
E. coli GC 2271 = conditions: Escherichia coli
S. aureus GC 6469 = conditions: Staphylococcus aureus
S. aureus GC 6335 = conditions: Staphylococcus aureus
E. coli GC 2235 = conditions: Escherichia coli
Method: as §1, §2

E. coli GC 2270 = conditions: Escherichia coli
S. pyogenes GC 4563 = conditions: Streptococcus pyogenes

`Cc1cc(C)cc(C(=O)OCOC(=O)N(CC(=O)Nc2cc(N(C)C)c3c(c2O)C(=O)C2=C(O)[C@]4(O)C(=O)C(C(N)=O)=C(O)[C@@H](N(C)C)[C@@H]4C[C@@H]2C3)C(C)(C)C)c1` [Example 51] showed an MIC (E. coli GC 6465; GC6465, read-out: MINIMAL INHIBITORY CONCENTRATION MIC, Human Serum) of 32 µg/mL (≈ 40.4 µM), an MIC (E. coli GC 6465; GC6465, read-out: MINIMAL INHIBITORY CONCENTRATION MIC, Mouse Serum) of 4 µg/mL (≈ 5.05 µM) and an MIC (E. coli GC 6465; GC6465, read-out: MINIMAL INHIBITORY CONCENTRATION MIC, Water) greater than 64 µg/mL. It also gave an MIC (S. aureus GC 1079; GC1079, read-out: MINIMAL INHIBITORY CONCENTRATION MIC, Human Serum) of 1 µg/mL (≈ 1.26 µM), an MIC (S. aureus GC 1079; GC1079, read-out: MINIMAL INHIBITORY CONCENTRATION MIC, Mouse Serum) of 0.5 µg/mL (≈ 0.631 µM) and an MIC (S. aureus GC 1079; GC1079, read-out: MINIMAL INHIBITORY CONCENTRATION MIC, Water) of 2 µg/mL (≈ 2.53 µM). For the same compound, the MIC (E. coli GC 2203; GC2203, read-out: MINIMAL INHIBITORY CONCENTRATION MIC, Human Serum) was 32 µg/mL (≈ 40.4 µM), the MIC (E. coli GC 2203; GC2203, read-out: MINIMAL INHIBITORY CONCENTRATION MIC, Mouse Serum) was 2 µg/mL (≈ 2.53 µM) and the MIC (E. coli GC 2203; GC2203, read-out: MINIMAL INHIBITORY CONCENTRATION MIC, Water) was greater than 64 µg/mL. It also gave an MIC (E. coli GC 4559; GC4559, read-out: MINIMAL INHIBITORY CONCENTRATION MIC, Human Serum) of 32 µg/mL (≈ 40.4 µM), an MIC (E. coli GC 4559; GC4559, read-out: MINIMAL INHIBITORY CONCENTRATION MIC, Mouse Serum) of 2 µg/mL (≈ 2.53 µM) and an MIC (E. coli GC 4559; GC4559, read-out: MINIMAL INHIBITORY CONCENTRATION MIC, Water) greater than 64 µg/mL. It also gave an MIC (E. faecium GC 4556; GC4556, read-out: MINIMAL INHIBITORY CONCENTRATION MIC, Human Serum) of 8 µg/mL (≈ 10.1 µM), an MIC (E. faecium GC 4556; GC4556, read-out: MINIMAL INHIBITORY CONCENTRATION MIC, Mouse Serum) of 2 µg/mL (≈ 2.53 µM) and an MIC (E. faecium GC 4556; GC4556, read-out: MINIMAL INHIBITORY CONCENTRATION MIC, Water) of 8 µg/mL (≈ 10.1 µM). The MIC (S. aureus GC 6467; GC6467, read-out: MINIMAL INHIBITORY CONCENTRATION MIC, Human Serum) was 1 µg/mL (≈ 1.26 µM), the MIC (S. aureus GC 6467; GC6467, read-out: MINIMAL INHIBITORY CONCENTRATION MIC, Mouse Serum) was 0.5 µg/mL (≈ 0.631 µM) and the MIC (S. aureus GC 6467; GC6467, read-out: MINIMAL INHIBITORY CONCENTRATION MIC, Water) was 2 µg/mL (≈ 2.53 µM). The MIC (E. coli GC 3226; GC3226, read-out: MINIMAL INHIBITORY CONCENTRATION MIC, Human Serum) was 64 µg/mL (≈ 80.8 µM), the MIC (E. coli GC 3226; GC3226, read-out: MINIMAL INHIBITORY CONCENTRATION MIC, Mouse Serum) was 2 µg/mL (≈ 2.53 µM) and the MIC (E. coli GC 3226; GC3226, read-out: MINIMAL INHIBITORY CONCENTRATION MIC, Water) was greater than 64 µg/mL. For the same compound, the MIC (E. coli GC 2234; GC2234, read-out: MINIMAL INHIBITORY CONCENTRATION MIC, Human Serum) was 32 µg/mL (≈ 40.4 µM), the MIC (E. coli GC 2234; GC2234, read-out: MINIMAL INHIBITORY CONCENTRATION MIC, Mouse Serum) was 1 µg/mL (≈ 1.26 µM) and the MIC (E. coli GC 2234; GC2234, read-out: MINIMAL INHIBITORY CONCENTRATION MIC, Water) was greater than 64 µg/mL. It also gave an MIC (E. coli GC 1073; GC1073, read-out: MINIMAL INHIBITORY CONCENTRATION MIC, Human Serum) of 64 µg/mL (≈ 80.8 µM), an MIC (E. coli GC 1073; GC1073, read-out: MINIMAL INHIBITORY CONCENTRATION MIC, Mouse Serum) of 2 µg/mL (≈ 2.53 µM) and an MIC (E. coli GC 1073; GC1073, read-out: MINIMAL INHIBITORY CONCENTRATION MIC, Water) greater than 64 µg/mL. The MIC (E. coli GC 2233; GC2233, read-out: MINIMAL INHIBITORY CONCENTRATION MIC, Human Serum) was 32 µg/mL (≈ 40.4 µM), the MIC (E. coli GC 2233; GC2233, read-out: MINIMAL INHIBITORY CONCENTRATION MIC, Mouse Serum) was 2 µg/mL (≈ 2.53 µM) and the MIC (E. coli GC 2233; GC2233, read-out: MINIMAL INHIBITORY CONCENTRATION MIC, Water) was greater than 64 µg/mL. It also gave an MIC (S. typhimurium GC 2172; read-out: MINIMAL INHIBITORY CONCENTRATION MIC, Human Serum) of 64 µg/mL (≈ 80.8 µM), an MIC (S. typhimurium GC 2172; read-out: MINIMAL INHIBITORY CONCENTRATION MIC, Mouse Serum) of 8 µg/mL (≈ 10.1 µM) and an MIC (S. typhimurium GC 2172; read-out: MINIMAL INHIBITORY CONCENTRATION MIC, Water) greater than 64 µg/mL. It also gave an MIC (S. agalactiae GC 4564; GC4564, read-out: MINIMAL INHIBITORY CONCENTRATION MIC, Human Serum) of 4 µg/mL (≈ 5.05 µM), an MIC (S. agalactiae GC 4564; GC4564, read-out: MINIMAL INHIBITORY CONCENTRATION MIC, Mouse Serum) of 1 µg/mL (≈ 1.26 µM) and an MIC (S. agalactiae GC 4564; GC4564, read-out: MINIMAL INHIBITORY CONCENTRATION MIC, Water) of 2 µg/mL (≈ 2.53 µM). The MIC (E. coli GC 4560; GC4560, read-out: MINIMAL INHIBITORY CONCENTRATION MIC, Human Serum) was 8 µg/mL (≈ 10.1 µM), the MIC (E. coli GC 4560; GC4560, read-out: MINIMAL INHIBITORY CONCENTRATION MIC, Mouse Serum) was 1 µg/mL (≈ 1.26 µM) and the MIC (E. coli GC 4560; GC4560, read-out: MINIMAL INHIBITORY CONCENTRATION MIC, Water) was 32 µg/mL (≈ 40.4 µM). It also gave an MIC (S. aureus GC 6466; GC6466, read-out: MINIMAL INHIBITORY CONCENTRATION MIC, Human Serum) of 0.25 µg/mL (≈ 0.316 µM), an MIC (S. aureus GC 6466; GC6466, read-out: MINIMAL INHIBITORY CONCENTRATION MIC, Mouse Serum) of 0.25 µg/mL (≈ 0.316 µM) and an MIC (S. aureus GC 6466; GC6466, read-out: MINIMAL INHIBITORY CONCENTRATION MIC, Water) of 1 µg/mL (≈ 1.26 µM). The MIC (E. coli GC 2271; GC2271, read-out: MINIMAL INHIBITORY CONCENTRATION MIC, Human Serum) was 32 µg/mL (≈ 40.4 µM), the MIC (E. coli GC 2271; GC2271, read-out: MINIMAL INHIBITORY CONCENTRATION MIC, Mouse Serum) was 1 µg/mL (≈ 1.26 µM) and the MIC (E. coli GC 2271; GC2271, read-out: MINIMAL INHIBITORY CONCENTRATION MIC, Water) was greater than 64 µg/mL. For the same compound, the MIC (S. aureus GC 6469; GC6469, read-out: MINIMAL INHIBITORY CONCENTRATION MIC, Human Serum) was 1 µg/mL (≈ 1.26 µM), the MIC (S. aureus GC 6469; GC6469, read-out: MINIMAL INHIBITORY CONCENTRATION MIC, Mouse Serum) was 1 µg/mL (≈ 1.26 µM) and the MIC (S. aureus GC 6469; GC6469, read-out: MINIMAL INHIBITORY CONCENTRATION MIC, Water) was 2 µg/mL (≈ 2.53 µM). The MIC (S. aureus GC 6335; GC6335, read-out: MINIMAL INHIBITORY CONCENTRATION MIC, Human Serum) was 0.5 µg/mL (≈ 0.631 µM), the MIC (S. aureus GC 6335; GC6335, read-out: MINIMAL INHIBITORY CONCENTRATION MIC, Mouse Serum) was 0.5 µg/mL (≈ 0.631 µM) and the MIC (S. aureus GC 6335; GC6335, read-out: MINIMAL INHIBITORY CONCENTRATION MIC, Water) was 1 µg/mL (≈ 1.26 µM). It also gave an MIC (E. coli GC 2235; GC2235, read-out: MINIMAL INHIBITORY CONCENTRATION MIC, Human Serum) of 32 µg/mL (≈ 40.4 µM), an MIC (E. coli GC 2235; GC2235, read-out: MINIMAL INHIBITORY CONCENTRATION MIC, Mouse Serum) of 1 µg/mL (≈ 1.26 µM) and an MIC (E. coli GC 2235; GC2235, read-out: MINIMAL INHIBITORY CONCENTRATION MIC, Water) greater than 64 µg/mL. For the same compound, the MIC (E. coli GC 2270; GC2270, read-out: MINIMAL INHIBITORY CONCENTRATION MIC, Human Serum) was 32 µg/mL (≈ 40.4 µM), the MIC (E. coli GC 2270; GC2270, read-out: MINIMAL INHIBITORY CONCENTRATION MIC, Mouse Serum) was 1 µg/mL (≈ 1.26 µM) and the MIC (E. coli GC 2270; GC2270, read-out: MINIMAL INHIBITORY CONCENTRATION MIC, Water) was greater than 64 µg/mL. The MIC (S. pyogenes GC 4563; GC4563, read-out: MINIMAL INHIBITORY CONCENTRATION MIC, Human Serum) was 2 µg/mL (≈ 2.53 µM), the MIC (S. pyogenes GC 4563; GC4563, read-out: MINIMAL INHIBITORY CONCENTRATION MIC, Mouse Serum) was 0.5 µg/mL (≈ 0.631 µM) and the MIC (S. pyogenes GC 4563; GC4563, read-out: MINIMAL INHIBITORY CONCENTRATION MIC, Water) was 2 µg/mL (≈ 2.53 µM).

Reference: patent US20070049564A1 (Wyeth, priority 2005, published 2007)
